Measurements: the NIST ThermoML archive (doi:10.1016/j.jct.2007.07.002)

Conditions: Gas, double Helmholtz acoustic resonator

[C-]#[O+] [carbon monoxide]
Conditions	kinematic viscosity [m2/s]	speed of sound [m/s]
225 K, 250.04 kPa	3.74e-06	305.59
225 K, 371.9 kPa	2.5e-06	305.42
225 K, 499.99 kPa	1.86e-06	305.4
225 K, 560.56 kPa	1.68e-06	305.34
225 K, 743.07 kPa	1.25e-06	305.24
225 K, 750 kPa	1.23e-06	305.26
225 K, 934.61 kPa	1e-06	305.14
225 K, 1000 kPa	9.4e-07	305.15
225 K, 1141.5 kPa	8.17e-07	305.06
225 K, 1250 kPa	7.36e-07	305.04
225 K, 1345.6 kPa	6.95e-07	304.99
225 K, 1500 kPa	6.19e-07	304.99
225 K, 1581.5 kPa	5.88e-07	304.94
225 K, 1750 kPa	5.32e-07	304.95
225 K, 1787.1 kPa	5.2e-07	304.91
225 K, 2000 kPa	4.66e-07	304.94
225 K, 2016.1 kPa	4.63e-07	304.91
225 K, 2264 kPa	4.14e-07	304.94
225 K, 2454.7 kPa	3.79e-07	304.96
250 K, 221.65 kPa	5.37e-06	322.56
250 K, 401.55 kPa	2.88e-06	322.4
250 K, 587.83 kPa	1.95e-06	322.43
250 K, 791.25 kPa	1.45e-06	322.51
250 K, 982.55 kPa	1.16e-06	322.58
250 K, 1169.1 kPa	9.78e-07	322.67
250 K, 1392.3 kPa	8.19e-07	322.79
250 K, 1587.8 kPa	7.19e-07	322.93
250 K, 1808.2 kPa	6.28e-07	323.08
250 K, 2050.1 kPa	5.56e-07	323.27
250 K, 2241.5 kPa	5.08e-07	323.44
275 K, 250.64 kPa	5.04e-06	338.34
275 K, 286.53 kPa	4.39e-06	338.19
275 K, 465.9 kPa	2.83e-06	338.32
275 K, 500.41 kPa	2.7e-06	338.48
275 K, 652.16 kPa	2.07e-06	338.54
275 K, 750 kPa	1.84e-06	338.76
275 K, 832.04 kPa	1.63e-06	338.75
275 K, 1000 kPa	1.37e-06	338.99
275 K, 1045.4 kPa	1.3e-06	338.99
275 K, 1250 kPa	1.11e-06	339.26
275 K, 1252.2 kPa	1.09e-06	339.22
275 K, 1443.1 kPa	9.45e-07	339.46
275 K, 1500 kPa	9.2e-07	339.57
275 K, 1675 kPa	8.12e-07	339.74
275 K, 1750 kPa	7.89e-07	339.89
275 K, 1882.7 kPa	7.23e-07	340.02
275 K, 2000 kPa	6.96e-07	340.23
275 K, 2150.8 kPa	6.33e-07	340.38
275 K, 2364.7 kPa	5.79e-07	340.69
300 K, 252.56 kPa	6.71e-06	353.44
300 K, 501.19 kPa	3.25e-06	353.74
300 K, 709.53 kPa	2.28e-06	354
300 K, 1000 kPa	1.64e-06	354.52
300 K, 1178.1 kPa	1.39e-06	354.78
300 K, 1250 kPa	1.31e-06	354.91
300 K, 1374 kPa	1.2e-06	355.09
300 K, 1481.5 kPa	1.12e-06	355.27
300 K, 1500 kPa	1.1e-06	355.32
300 K, 1602.1 kPa	1.03e-06	355.46
300 K, 1730.3 kPa	9.55e-07	355.67
300 K, 1750 kPa	9.47e-07	355.74
300 K, 1868 kPa	8.89e-07	355.91
300 K, 2000 kPa	8.32e-07	356.15
300 K, 2005.3 kPa	8.27e-07	356.15
325 K, 303.08 kPa	5.93e-06	367.79
325 K, 515.56 kPa	3.49e-06	368.11
325 K, 732.01 kPa	2.49e-06	368.52
325 K, 943.23 kPa	1.94e-06	368.91
325 K, 1169.7 kPa	1.57e-06	369.33
325 K, 1401.2 kPa	1.31e-06	369.77
325 K, 1633.9 kPa	1.12e-06	370.22
325 K, 1908.7 kPa	9.62e-07	370.77
325 K, 2129.6 kPa	8.63e-07	371.22
325 K, 2413.1 kPa	7.66e-07	371.82
350 K, 342.4 kPa	6.04e-06	381.63
350 K, 544.1 kPa	3.84e-06	382.06
350 K, 775.52 kPa	2.69e-06	382.52
350 K, 1007.1 kPa	2.06e-06	382.99
350 K, 1245.1 kPa	1.68e-06	383.51
350 K, 1461.5 kPa	1.43e-06	383.96
350 K, 1735.1 kPa	1.21e-06	384.56
350 K, 1995.6 kPa	1.05e-06	385.14
350 K, 2208.2 kPa	9.51e-07	385.62
350 K, 2464.2 kPa	8.55e-07	386.21
375 K, 260.28 kPa	8.45e-06	394.36
375 K, 460.71 kPa	4.99e-06	394.79
375 K, 672.43 kPa	3.42e-06	395.31
375 K, 885.97 kPa	2.63e-06	395.84
375 K, 1102.9 kPa	2.13e-06	396.34
375 K, 1302.3 kPa	1.81e-06	396.82
375 K, 1537.5 kPa	1.53e-06	397.37
375 K, 1815.6 kPa	1.3e-06	398.04
375 K, 2026.2 kPa	1.16e-06	398.56
375 K, 2250.6 kPa	1.05e-06	399.12
375 K, 2518.2 kPa	9.4e-07	399.8
